Literature values, collected in patent publication US20060127459A1, “Urogenital infection inhibition” (priority 2004, published 2006).

System: pathogen adherence to epithelium cells
Settings: positive control, shown in U.S. patent application Ser. No. 10/401,522

In the case of Hyaluronic acid (HLA) potassium salt, the “pathogen adherence to epithelium cells” value is listed as “inhibit pathogen adherence”.
